Measurements from ChEMBL document CHEMBL6071134, “Novel bibenzyl compound Ae exhibits anti-agiogenic activity in HUVECs in vitro and zebrafish in vivo” (Bioorg Med Chem, 2024).
Calls of active or inactive are those of the source. The rule behind the calls is not given here.

Key:
[1] = species on record: Danio rerio; assay: Antiangiogenic activity against transgenic zebrafish model assessed as inhibition of inter-segmental blood vessels of embryo measured after 72 hrs post fertilization by fluorescence microscopy based analysis; assay type: functional, organism-based; conditions: dose 0.625-2.5 µM
[2] = species on record: Danio rerio; assay: Antiangiogenic activity against transgenic zebrafish model assessed as inhibition of inter-segmental blood vessels of embryo at 0.625 uM measured after 72 hrs post fertilization by fluorescence microscopy based analysis; assay type: functional, organism-based
[3] = species on record: Danio rerio; assay: Antiangiogenic activity against transgenic zebrafish model assessed as inhibition of inter-segmental blood vessels of embryo at 2.5 uM measured after 72 hrs post fertilization by fluorescence microscopy based analysis relative to control; assay type: functional; parameters: scale not given: the % may be the effect or the level left
[4] = Toxicity in transgenic zebrafish at 2.5 uM measured after 72 hrs; parameters: species or system Danio rerio; conditions: in vivo
[5] = (§1) Antiproliferative activity against HUVEC cells measured after 48 hrs by CCK-8 method; assay type: toxicity, cell-based; conditions: human, HUVEC cells
[6] = test system: HUVEC; assay: as §1; assay type: toxicity, cell-based; conditions: human, huvec, 48 h; dose 0.062-16 µM
[7] = test system: HUVEC; assay: Inhibition of cell migration in HUVEC cells at 0.25 uM by crystal violet staining based Boyden chamber assay; assay type: functional; conditions: Homo sapiens
[8] = test system: HUVEC; assay: Inhibition of cell migration in HUVEC cells at 0.25 uM by crystal violet staining based Boyden chamber assay relative to control; assay type: functional; conditions: Homo sapiens
[9] = test system: HUVEC; assay: Inhibition of cell migration in HUVEC cells at 0.5 uM by crystal violet staining based Boyden chamber assay relative to control; assay type: functional; conditions: Homo sapiens
[10] = test system: HUVEC; assay: Inhibition of cell migration in HUVEC cells at 1 uM by crystal violet staining based Boyden chamber assay relative to control; assay type: functional; conditions: Homo sapiens
[11] = test system: HUVEC; assay: Inhibition of cell migration in HUVEC cells at 2 uM by crystal violet staining based Boyden chamber assay relative to control; assay type: functional; conditions: Homo sapiens
[12] = test system: HUVEC; assay: Inhibition of cell migration in HUVEC cells assessed as […] in wound closure area at 0.25 to 2 uM incubated for 12 hrs by crystal violet staining based wound healing assay relative to DMSO; assay type: functional; conditions: Homo sapiens, dose 0.25-2 µM
[13] = test system: HUVEC; assay: Inhibition of cell migration in HUVEC cells incubated for 12 hrs by crystal violet staining based wound healing assay; assay type: functional; conditions: Homo sapiens, dose 0.25-2 µM
[14] = test system: HUVEC; assay: Inhibition of cell invasion in HUVEC cells measured after 24 hrs by crystal violet staining based inverted fluorescence microscopy analysis; assay type: functional; conditions: Homo sapiens, dose 0.25-2 µM
[15] = test system: HUVEC; assay: Inhibition of cell invasion in HUVEC cells assessed as reduction in number of invading cells at 2 uM measured after 24 hrs by crystal violet staining based inverted fluorescence microscopy analysis relative to control; assay type: functional; conditions: Homo sapiens
[16] = test system: HUVEC; assay: Anti-angiogenesis activity in HUVEC cells assessed as reduction in total tube length at 1 uM incubated for 12 hrs by inverted microscopic analysis relative to control; assay type: functional, Homo sapiens; parameters: scale not given: the % may be the effect or the level left
[17] = test system: HUVEC; assay: Anti-angiogenesis activity in HUVEC cells assessed as reduction in total tube length at 2 uM incubated for 12 hrs by inverted microscopic analysis relative to control; assay type: functional, Homo sapiens; parameters: scale not given: the % may be the effect or the level left
[18] = test system: HUVEC; assay: Anti-angiogenesis activity in HUVEC cells assessed as appearance of broken tubule network structure at 0.25 to 2 uM incubated for 12 hrs by inverted microscopic analysis; assay type: functional, cell-based; conditions: Homo sapiens, dose 0.25-2 µM
[19] = test system: HUVEC; assay: Anti-angiogenesis activity in HUVEC cells assessed as appearance of incomplete tubule network structure at 0.25 to 2 uM incubated for 12 hrs by inverted microscopic analysis; assay type: functional, cell-based; conditions: Homo sapiens, dose 0.25-2 µM
[20] = test system: HUVEC; assay: Anti-angiogenesis activity in HUVEC cells assessed as appearance of few branches in tubule network structure at 0.25 to 2 uM incubated for 12 hrs by inverted microscopic analysis; assay type: functional, cell-based; conditions: Homo sapiens, dose 0.25-2 µM
[21] = test system: HUVEC; assay: Anti-angiogenesis activity in HUVEC cells assessed as appearance of shorter tubule length at 0.25 to 2 uM incubated for 12 hrs by inverted microscopic analysis; assay type: functional, cell-based; conditions: Homo sapiens, dose 0.25-2 µM
[22] = species on record: Danio rerio; assay: Anti-angiogenesis activity in zebrafish embryo assessed as downregulation of ang-2 mRNA expression at 0.5 to 5 uM measured after 24 hrs by qRT-PCR analysis; assay type: functional, organism-based; conditions: dose 0.5-5 µM
[23] = species on record: Danio rerio; assay: Anti-angiogenesis activity in zebrafish embryo assessed as downregulation of tek mRNA expression at 0.5 to 5 uM measured after 24 hrs by qRT-PCR analysis; assay type: functional, organism-based; conditions: dose 0.5-5 µM
[24] = species on record: Danio rerio; assay: Anti-angiogenesis activity in zebrafish embryo assessed as downregulation of kdr mRNA expression at 0.5 to 5 uM measured after 24 hrs by qRT-PCR analysis; assay type: functional, organism-based; conditions: dose 0.5-5 µM
[25] = species on record: Danio rerio; assay: Anti-angiogenesis activity in zebrafish embryo assessed as downregulation of kdr1 mRNA expression at 0.5 to 5 uM measured after 24 hrs by qRT-PCR analysis; assay type: functional, organism-based; conditions: dose 0.5-5 µM
[26] = species on record: Danio rerio; assay: Anti-angiogenesis activity in zebrafish embryo assessed as effect on […]-mRNA expression at 0.5 to 5 uM measured after 24 hrs by qRT-PCR analysis; assay type: functional, organism-based; conditions: dose 0.5-5 µM
[27] = species on record: Danio rerio; assay: Anti-angiogenesis activity in zebrafish embryo assessed as effect on flt-1 mRNA expression at 0.5 to 5 uM measured after 24 hrs by qRT-PCR analysis; assay type: functional, organism-based; conditions: dose 0.5-5 µM
[28] = species on record: Danio rerio; assay: Anti-angiogenesis activity in zebrafish embryo assessed as effect on fgf2 mRNA expression at 0.5 to 5 uM measured after 24 hrs by qRT-PCR analysis; assay type: functional, organism-based; conditions: dose 0.5-5 µM
[29] = species on record: Danio rerio; assay: Anti-angiogenesis activity in zebrafish embryo assessed as effect on fgfr2 mRNA expression at 0.5 to 5 uM measured after 24 hrs by qRT-PCR analysis; assay type: functional, organism-based; conditions: dose 0.5-5 µM

COc1cc(CCc2ccccc2Cl)cc(OC)c1O
Activity [1]: Dose-Dependent Effect | Activity [2]: Active | Activity [3]: 100% | Activity [4]: Toxic | IC50 at 48 h [5]: 1700 nM | Activity [6]: Dose-Dependent Effect | inhibition [7]: Active | inhibition at 0.25 µM [8]: ~37.2% | inhibition at 0.5 µM [9]: ~64.4% | inhibition at 1 µM [10]: ~71.3% | inhibition at 2 µM [11]: ~78.5% | inhibition [12]: Active | inhibition [13]: Dose-Dependent Effect | inhibition [14]: Dose-Dependent Effect | inhibition at 2 µM [15]: 17.4% | Activity [16]: 38.7% | Activity [17]: 22.6% | Activity [18]: Active | Activity [19]: Active | Activity [20]: Active | Activity [21]: Active | Activity [22]: Active | Activity [23]: Active | Activity [24]: Active | Activity [25]: Active | Activity [26]: inactive | Activity [27]: inactive | Activity [28]: inactive | Activity [29]: inactive
